Source: patent US10196386B2, “Compounds having muscarinic receptor antagonist and beta2 adrenergic receptor agonist activity” (priority 2016, dated 2019)

Assays:
Human β2 adrenoceptor = biological target: T1, Human β2 adrenoceptor (Homo sapiens, UniProt P07550); experiment: β2 adrenoceptor radioligand binding assay
T1 construct: purchased Perkin Elmer
Outline: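 Human β2 receptor membranes incubated 1 h at room temperature with 0.3 nM [125I]cyanopindolol and compound in pH 7.4 HEPES buffer (0.5% DMSO); 2 μM s-propranolol defined non-specific binding. Bound label counted after filtration; IC50 from competition curves, converted to Ki via Cheng–Prusoff.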

Human M3 receptor = biological target: T2, Human M3 receptor (Homo sapiens, UniProt P20309); experiment: biochemical; type: binding; settings: read-out: M3 Range
T2 construct: purchased Perkin Elmer
T2 sequence (P20309 whole entry): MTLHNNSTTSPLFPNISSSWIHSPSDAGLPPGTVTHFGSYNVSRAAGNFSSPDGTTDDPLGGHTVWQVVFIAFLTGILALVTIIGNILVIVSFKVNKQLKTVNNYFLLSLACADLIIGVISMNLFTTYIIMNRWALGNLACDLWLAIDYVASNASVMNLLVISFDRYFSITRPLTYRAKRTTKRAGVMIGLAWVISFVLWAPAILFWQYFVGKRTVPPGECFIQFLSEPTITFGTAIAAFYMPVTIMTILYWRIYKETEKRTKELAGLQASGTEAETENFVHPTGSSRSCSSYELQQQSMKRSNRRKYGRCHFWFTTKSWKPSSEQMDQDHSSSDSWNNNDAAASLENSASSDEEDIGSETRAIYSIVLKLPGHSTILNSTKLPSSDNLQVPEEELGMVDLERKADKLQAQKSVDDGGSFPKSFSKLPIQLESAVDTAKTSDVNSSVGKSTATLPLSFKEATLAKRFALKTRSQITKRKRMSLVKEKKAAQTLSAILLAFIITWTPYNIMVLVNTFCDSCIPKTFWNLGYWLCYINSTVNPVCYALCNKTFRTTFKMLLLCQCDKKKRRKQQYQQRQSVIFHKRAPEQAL

T1 sequence (P07550 whole entry): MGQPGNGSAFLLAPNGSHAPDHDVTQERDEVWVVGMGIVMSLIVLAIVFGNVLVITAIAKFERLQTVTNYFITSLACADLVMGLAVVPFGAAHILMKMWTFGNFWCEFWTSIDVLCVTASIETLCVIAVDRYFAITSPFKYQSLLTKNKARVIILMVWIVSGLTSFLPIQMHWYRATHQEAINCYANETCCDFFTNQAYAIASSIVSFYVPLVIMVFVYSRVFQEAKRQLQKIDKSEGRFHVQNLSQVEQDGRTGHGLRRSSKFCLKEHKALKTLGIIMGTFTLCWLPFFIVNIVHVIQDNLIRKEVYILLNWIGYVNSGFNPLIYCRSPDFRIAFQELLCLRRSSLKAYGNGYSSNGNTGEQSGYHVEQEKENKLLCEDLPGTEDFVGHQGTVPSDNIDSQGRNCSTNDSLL

SMILES	IC50 (Human β2 adrenoceptor) [nM]	IC50 (Human M3 receptor) [nM]
O=C(NCC(=O)N1CCC(c2cccc([C@](O)(C(=O)OCC3CCN(Cc4ccccc4)CC3)c3ccccc3)c2)CC1)c1ccc(CCNC[C@H](O)c2ccc(O)c3[nH]c(=O)ccc23)cc1 [Compound 13, (1-Benzylpiperidin-4-yl)methyl (S)-2-hydroxy-2-(3-(1-((4-(2-(((R)-2-hydroxy-2-(8-hydroxy-2-oxo-1,2-dihydroquinolin-5-yl)ethyl)amino)ethyl)benzoyl)-glycyl)piperidin-4-yl)phenyl)-2-phenylacetate]	< 0.3	0.3 to 3
COc1cc(C(=O)NCc2ccnc(-c3cccc([C@](O)(C(=O)OCC4CCN(Cc5ccccc5)CC4)c4ccccc4)c3)n2)ccc1CNC[C@H](O)c1ccc(O)c2[nH]c(=O)ccc12 [Compound 4A, (1-Benzylpiperidin-4-yl)methyl (S)-2-hydroxy-2-(3-(4-((4-((((R)-2-hydroxy-2-(8-hydroxy-2-oxo-1,2-dihydroquinolin-5-yl)ethyl)amino)methyl)-3-methoxybenzamido)methyl)pyrimidin-2-yl)phenyl)-2-phenylacetate]	< 0.3	0.3 to 3
COc1cccc(CN2CCC(COC(=O)[C@](O)(c3ccccc3)c3cccc(-c4ccc(CNC(=O)c5ccc(CNC[C@H](O)c6ccc(O)c7[nH]c(=O)ccc67)cc5)s4)c3)CC2)c1 [Compound 2E, (1-(3-Methoxybenzyl)piperidin-4-yl)methyl (S)-2-hydroxy-2-(3-(5-((4-((((R)-2-hydroxy-2-(8-hydroxy-2-oxo-1,2-dihydroquinolin-5-yl)ethyl)amino)-methyl)benzamido)methyl)thiophen-2-yl)phenyl)-2-phenylacetate]	0.3 to 3	> 3
CN(CC(=O)N1CC=C(c2cccc([C@](O)(C(=O)OCC3CCN(Cc4ccccc4)CC3)c3ccccc3)c2)CC1)C(=O)c1ccc(CNC[C@H](O)c2ccc(O)c3[nH]c(=O)ccc23)cc1 [Compound 8F, (1-Benzylpiperidin-4-yl)methyl (S)-2-hydroxy-2-(3-(1-(N-(4-((((R)-2-hydroxy-2-(8-hydroxy-2-oxo-1,2-dihydroquinolin-5-yl)ethyl)amino)-methyl)benzoyl)-N-methylglycyl)-1,2,3,6-tetrahydropyridin-4-yl)phenyl)-2-phenylacetate]	0.3 to 3	0.3 to 3
COc1c(CNC[C@H](O)c2ccc(O)c3[nH]c(=O)ccc23)ccc(C(=O)NCc2ccc(-c3cccc([C@](O)(C(=O)OCC4CCN(Cc5ccccc5)CC4)c4ccccc4)c3)s2)c1F [Compound 1K, (1-Benzylpiperidin-4-yl)methyl (S)-2-(3-(5-((2-fluoro-4-((((R)-2-hydroxy-2-(8-hydroxy-2-oxo-1,2-dihydroquinolin-5-yl)ethyl)amino)methyl)-3-methoxybenzamido)methyl)thiophen-2-yl)phenyl)-2-hydroxy-2-phenylacetate]	< 0.3	0.3 to 3
O=C(NCCCNC[C@H](O)c1ccc(O)c2[nH]c(=O)ccc12)c1cncc(-c2cccc([C@](O)(C(=O)OCC3CCN(Cc4ccccc4)CC3)c3ccccc3)c2)n1 [Compound 10, (1-Benzylpiperidin-4-yl)methyl (S)-2-hydroxy-2-(3-(6-((3-(((R)-2-hydroxy-2-(8-hydroxy-2-oxo-1,2-dihydroquinolin-5-yl)ethyl)amino)propyl)carbamoyl)pyrazin-2-yl)phenyl)-2-phenylacetate]	0.3 to 3	0.3 to 3
COc1cc(C(=O)NCc2ccc(-c3cccc([C@](O)(C(=O)OCC4CCN(Cc5ccccc5)CC4)c4ccccc4)c3)s2)ccc1CNC[C@H](O)c1ccc(O)c2[nH]c(=O)ccc12 [Compound 1B, (1-Benzylpiperidin-4-yl)methyl (S)-2-hydroxy-2-(3-(5-((4-((((R)-2-hydroxy-2-(8-hydroxy-2-oxo-1,2-dihydroquinolin-5-yl)ethyl)amino)methyl)-3-methoxybenzamido)methyl)thiophen-2-yl)phenyl)-2-phenylacetate]	< 0.3	0.3 to 3
O=C(NCc1ccc(-c2ccc([C@](O)(C(=O)OCC3CCN(Cc4ccccc4)CC3)c3ccccc3)cc2)cn1)c1ccc(CNC[C@H](O)c2ccc(O)c3[nH]c(=O)ccc23)cc1 [Compound 15D, (1-benzylpiperidin-4-yl)methyl (S)-2-hydroxy-2-(4-(6-((4-((((R)-2-hydroxy-2-(8-hydroxy-2-oxo-1,2-dihydroquinolin-5-yl)ethyl)amino)methyl)-benzamido)methyl)pyridin-3-yl)phenyl)-2-phenylacetate]	< 0.3	0.3 to 3
O=C(NCCc1ccc(-c2cccc([C@](O)(C(=O)OCC3CCN(Cc4ccccc4)CC3)c3ccccc3)c2)s1)c1ccc(CNC[C@H](O)c2ccc(O)c3[nH]c(=O)ccc23)cc1 [Compound 5D, (1-Benzylpiperidin-4-yl)methyl (S)-2-hydroxy-2-(3-(5-(2-(4-((((R)-2-hydroxy-2-(8-hydroxy-2-oxo-1,2-dihydroquinolin-5-yl)ethyl)amino)methyl)-benzamido)ethyl)thiophen-2-yl)phenyl)-2-phenylacetate]	< 0.3	0.3 to 3
O=C(NCc1ccc(-c2cccc([C@](O)(C(=O)OCC3CCN(Cc4ccccc4)CC3)c3ccccc3)c2)s1)c1ccc(CNC[C@H](O)c2ccc(O)c3[nH]c(=O)ccc23)c(Cl)c1 [Compound 1R, (1-Benzylpiperidin-4-yl)methyl (S)-2-(3-(5-((3-chloro-4-((((R)-2-hydroxy-2-(8-hydroxy-2-oxo-1,2-dihydroquinolin-5-yl)ethyl)amino)methyl)-benzamido)methyl)thiophen-2-yl)phenyl)-2-hydroxy-2-phenylacetate]	< 0.3	> 3
COc1cc(C(=O)NCc2cnc(-c3cccc([C@](O)(C(=O)OCC4CCN(Cc5ccccc5)CC4)c4ccccc4)c3)cn2)ccc1CNC[C@H](O)c1ccc(O)c2[nH]c(=O)ccc12 [Compound 4H, (1-Benzylpiperidin-4-yl)methyl (S)-2-hydroxy-2-(3-(5-((4-((((R)-2-hydroxy-2-(8-hydroxy-2-oxo-1,2-dihydroquinolin-5-yl)ethyl)amino)methyl)-3-methoxybenzamido)methyl)pyrazin-2-yl)phenyl)-2-phenylacetate]	< 0.3	0.3 to 3
O=C(NCc1cc(-c2ccc([C@](O)(C(=O)OCC3CCN(Cc4ccccc4)CC3)c3ccccc3)cc2)cs1)c1ccc(CNC[C@H](O)c2ccc(O)c3[nH]c(=O)ccc23)cc1 [Compound 15B, (1-benzylpiperidin-4-yl)methyl (S)-2-hydroxy-2-(4-(5-((4-((((R)-2-hydroxy-2-(8-hydroxy-2-oxo-1,2-dihydroquinolin-5-yl)ethyl)amino)methyl)-benzamido)methyl)thiophen-3-yl)phenyl)-2-phenylacetate]	0.3 to 3	> 3
COc1cc(C(=O)NCc2cncc(-c3cccc([C@](O)(C(=O)OCC4CCN(Cc5ccccc5)CC4)c4ccccc4)c3)n2)ccc1CNC[C@H](O)c1ccc(O)c2[nH]c(=O)ccc12 [Compound 4G, (1-Benzylpiperidin-4-yl)methyl (S)-2-hydroxy-2-(3-(6-((4-((((R)-2-hydroxy-2-(8-hydroxy-2-oxo-1,2-dihydroquinolin-5-yl)ethyl)amino)methyl)-3-methoxybenzamido)methyl)pyrazin-2-yl)phenyl)-2-phenylacetate]	< 0.3	0.3 to 3
